Source: patent publication US9248202B2, “Two-photon probe for detecting copper(II) ion and quantitative estimation of copper(II) ion in human tissue using the same” (Korea University Research and Business Foundation, priority 2014, dated 2016)

How the values were obtained:
[1] = tested on: HeLa cells; experiment: Cell viability, CCK-8 kit; format: cell-based, human; details: various ACCu2 concentrations
Method: HeLa human cervical carcinoma cells were acquired from the ATCC (Manassas, Va., USA). The cells were cultured in DMEM (WelGene, Inc., Seoul, Korea) supplemented with heat-inactivated 10% FBS (WelGene), penicillin (100 units/mL) and streptomycin ([…]), All the cell lines were maintained in a humidified atmosphere of 5% CO2 and 95% air at 37° C. Two days before imaging, the cells were moved and plated onto glass-bottomed dishes (MatTek), For labeling, the growth medium was removed and replaced with FBS-free DMEM. The cells were incubated with 3 μM ACCu2 for 20 minutes at 37° C., washed 3 times with FBS-free DMEM and imaged.
The viability of HeLa cells with the ACCu2 concentration was measured under the incubation condition using the CCK-8 kit (Cell Counting Kit-8, Dojindo, Japan) (FIG. 7). […] Accordingly, it can be seen that the copper(II) ion concentration in living cells can be measured with minimum interference from cytotoxicity.

[2] = tested on: human colon tissue; experiment: Quantitative estimation of copper(II) ion in human colon tissue by TPM; details: for average Ired/Iblue ratio: 20 μM ACCu2
Source text: Colon slices were obtained from outpatients who underwent elective colonoscopies at the Korea University Medical Center Anam Hospital. The volunteers were recruited to participate in the experiment, which was approved by the hospital ethics committee, and all the participating patients provided informed consents. The patients who had known or suspected bleeding disorders, an international normalized ratio of prothrombin time exceeding 1.4 a platelet count of <100,000 or who had taken aspirin within the previous 5 days were excluded.
During the colonoscopy examination, tissues were obtained from malignant lesions, adenomas and normal mucosa by biopsy forceps. Normal colon mucosal and adenoma or adenocarcinoma tissues were collected from the same patient. Standard biopsy forceps (Olympus Medical Systems Corporation, Tokyo, Japan) were used to obtain paired mucosal pinch biopsy specimens from the colon. 28, 10 and 6 tissue samples were acquired from normal, polyp and cancer tissues, respectively. The tissues were placed in sterile specimen bottles containing PBS. Half of the normal tissue samples were treated with EDTA (1 M) for 40 minutes. Then, the tissue samples were stained with 20 μM ACCu2 in artificial spinal fluid for 1-2 hours at 37.8° C. and then imaged.
As a result, clinical important images were obtained at depths of 90-190 μm in the mucosal and submucosal layers, as shown in FIG. 11(a).

[3] = Two-photon action cross section; format: physicochemical; details: at 880 nm, EtOH/HEPES (9/1 v/v, pH 7.0)
Method: Referring to FIG. 4(a), the Φδmax value of ACCu2 in EtOH/HEPES (9/1 v/v, pH 7.0) buffer was 32 GM at 880 nm, while those for FL and IR were 32 GM at 880 nm and 46 GM at 750 nm. The lower Φδmax value of ACCu2 at 750 nm than that of IR is because of decreased fluorescence resonance energy transfer (FRET) from IR to FL and it allows to obtain bright TPM images of cells and ^.tissues labeled with ACCu2.
The two-photon cross section (δ) was determined by the fe tosecond (fs) fluorescence measurement technique described in the literature (S. K. Lee, W. J. Yang, J. J. Choi, C. H. Kim, S.-J. Jeon, B. R. Cho, Org. Lett 2005, 7, 323-326.), ACCu2 was dissolved in 20 mM HEPES buffer (pH 7.0) to a concentration of 3.0×10^−6 M and then two-photon induced fluorescence intensity was measured at 740-940 nm using rhodamine 6G as a reference, whose two-photon property has been well characterized. The intensities of two-photon induced fluorescence of the reference and the sample were determined at the same excitation wavelength.
The two-photon cross section can be calculated from equation (3). δ=δr(SsΦrΦrcr)/(SrΦsΦscs) Equation (3)
wherein s and r stand for the sample, i.e., ACCu2, and the reference, respectively. S denotes the intensity of the signal collected using a CCD detector, Φ is the fluorescence quantum yield, Φ is the overall fluorescence collection efficiency of the experimental apparatus, c is the number density of molecules in solution, and δr is the two-photon cross section of the reference molecule.

[4] = tested on: rat brain tissue; experiment: Quantitative estimation of copper(II) ion in rat brain tissue slices by TPM
Method: Slices were prepared from the hippocampi and hypothalami of 2-day-old Sprague-Dawley (SD) rats. Coronal slices were cut into 400 μm thickness using a vibrating-blade microtome in artificial cerebrospinal fluid (ACSF; 138.6 mM NaCl, 3.5 mM KCl, 21 mM NaHCO3, 0.6 mM NaH2PO4, 9.9 mM D-glucose, 1 mM CaCl2 and 3 mM MgCl2). The slices were incubated with 20 μM ACCu2 in ACSF bubbled with 95% O2 and 5% CO2 for 30 minutes at 37° C. The slices were e then washed 3 times with ACSF, transferred to glass-bottomed dishes (MatTek) and observed with spectral confocal and rnultiphoton microscopy.
Because the structure of the brain tissue is heterogeneous, TPM images were acquired at depths of 90-190 μm to visualize the overall copper(II) on distribution.

[5] = Fluorescence titration with copper(II) ion (one-photon and two-photon); format: binding
Method: Referring to FIG. 3(b), when small increments of copper(II) ion were added to ACCu2 in EtOH/HEPES (9/1 viv, pH=7.0), the TPEF intensity at the channel 2 (Ired) decreased gradually without any appreciable change at the channel 1 (Iblue).
The dissociation constant (Kd) can be calculated using Equation (2): […]
wherein I is the fluorescence intensity, Ifinal is the fluorescence intensity for the CU^2+-ACCu2 complex and Iinitial is the fluorescence intensity for ACCu2.
The dissociation constants (Kd^OP and Kd^TP) of ACCu2 for the OP and TP processes can be calculated from the fluorescence titration curves shown in FIG. 3(b). […] These indicate 1:1 complexation between the probe and the cation.
Referring to FIG. 5(a), the fluorescence intensities of ACCu2 according to the present disclosure measured by the OP (one-photon) and TP (two-photon) processes decreased by 10-fold in the presence of 200 μM of copper(II) ion. […] This means that quantitative measurement of copper(II) ion is possible in this concentration range. Moreover, the Ired/Iblue ratios determined in the two-photon mode were well fitted by the titration curve obtained in the one-photon mode.

[6] = EDTA-treated normal colon tissue
[7] = rat brain tissue, after copper(II) ion (500 μM) and PDTC (200 μM)

With `COCCOCCOCCOc1ccc2c(ccc3cc(C(=O)N4CCN(C(=O)c5ccc(CNC(=O)c6cc7cc8ccc(N(C)C)cc8cc7oc6=O)nc5)CC4)c(=O)oc32)c1` [ACCu2] the “viability of HeLa cells” value [1] was “did not affect the viability of HeLa cells”, the “copper(II) ion concentration” value [2, 6] was 0.0 ± 0.1 µM and the “average Ired/Iblue ratio” value [2, 6] was 10.0±0.3. The “copper(II) ion concentration” value ([2]; cancer colon tissue) was 22 ± 3 µM, the “average Ired/Iblue ratio” value ([2]; cancer colon tissue) was 5.2±0.6 and the “copper(II) ion concentration” value ([2]; normal colon tissue) was 8.2 ± 0.3 µM. The “average Ired/Iblue ratio” value ([2]; normal colon tissue) was 8.3±0.4, the “copper(II) ion concentration” value ([2]; polyp colon tissue) was 13 ± 2 µM and the “average Ired/Iblue ratio” value ([2]; polyp colon tissue) was 7.2±0.5. The “Φδmax (two-photon action cross section)” value [3] was 32 GM, the Ired/Iblue ratio ([4]; ACCu2 (20 μM)-labeled rat brain tissue, untreated) was 9.9±0.5 and the Ired/Iblue ratio [4, 7] was 6.8±0.6. For the same compound, the “free copper ion concentration” value [4, 7] was 14 ± 1.5 µM, the “free copper(II) ion concentration” value ([4]; rat brain tissue, untreated) was 0.0 ± 1.1 µM and the “detection limit for copper ion by TPM” value [5] was 0.84 µM. For the same compound, the “decrease of fluorescence intensity” value ([5]; OP and TP processes, in the presence of 200 μM copper(II) ion) was 10 fold and the “copper(II) ion concentration range in which Ired/Iblue plot is linear” value ([5]; titration curve FIG. 5(b)) was 0 to 0.25 µM.
